# Earlier results as cited in patent US20070016968A1, “Treatment of pain through expression of opioid receptors” (priority 2003, published 2007).
# Tests used:
# mice of the CXBX strain = details: CXBX strain mice (Rossi et al 1996)
# [1] = system: MOR-1 knockout mice (exon-1); details: disruption in exon-1 (Schuller et al 1999)
# mice = details: antinociception tests on mice
# μ1-site = details: Ling et al 1984, 1985
# μ-receptor = details: in vivo studies (Ling et al)
# cloned DOR-1 receptor = cloned DOR-1 receptor (Mus musculus, UniProt P32300); details: mouse recombinant receptor
# Sequence of cloned DOR-1 receptor (P32300 whole entry): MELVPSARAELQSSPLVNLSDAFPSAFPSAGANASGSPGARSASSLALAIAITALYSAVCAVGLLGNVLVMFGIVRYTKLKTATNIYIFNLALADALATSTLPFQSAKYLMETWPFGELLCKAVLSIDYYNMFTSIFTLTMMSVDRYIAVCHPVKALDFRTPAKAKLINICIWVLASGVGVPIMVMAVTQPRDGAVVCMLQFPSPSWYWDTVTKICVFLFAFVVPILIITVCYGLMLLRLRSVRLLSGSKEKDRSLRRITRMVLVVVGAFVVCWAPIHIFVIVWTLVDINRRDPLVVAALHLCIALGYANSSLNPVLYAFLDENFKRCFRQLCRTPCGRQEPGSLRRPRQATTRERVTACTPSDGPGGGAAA
smiles,measurement,setting,value
CC(=O)O[C@H]1C=C[C@H]2[C@H]3Cc4ccc(O)c5c4[C@@]2(CCN3C)[C@H]1O5 [6-acetyl morphine],antinociceptive activity,mice of the CXBX strain,potently antinociceptive
CC(=O)Oc1ccc2c3c1O[C@H]1[C@@H](OC(C)=O)C=C[C@H]4[C@@H](C2)N(C)CC[C@@]341 [heroin],antinociceptive activity,mice of the CXBX strain,potently antinociceptive
same,antinociception,[1],still produce antinociception
CN1CC[C@]23c4c5ccc(O)c4O[C@H]2[C@@H](O[C@@H]2O[C@H](C(=O)O)[C@@H](O)[C@H](O)[C@H]2O)C=C[C@H]3[C@H]1C5 [morphine-6b-glucuronide],antinociceptive activity,mice of the CXBX strain,potently antinociceptive
CN1CC[C@]23c4c5ccc(O)c4O[C@H]2[C@@H](O)C=C[C@H]3[C@H]1C5 [morphine],antinociceptive activity,mice of the CXBX strain,poor antinociceptive agent
same,"cross tolerance with morphine-6b-glucuronide, heroin or 6-acetyl morphine",mice,does not exhibit cross tolerance
C=CCN1CC[C@]23c4c5ccc(O)c4O[C@H]2/C(=N\N)CC[C@@]3(O)[C@H]1C5 [naloxazone],effect on binding of radioligands to the μ1-site,μ1-site,abolish the binding of radioligands
same,block of morphine-induced antinociception,μ-receptor,selectively blocked
same,block of morphine-induced respiratory depression,μ-receptor,did not block
same,block of the induction of morphine dependence,μ-receptor,did not block
C=CCN1CC[C@]23c4c5ccc(O)c4O[C@H]2/C(=N/N=C2\CC[C@@]4(O)[C@H]6Cc7ccc(O)c8c7[C@@]4(CCN6CC=C)[C@H]2O8)CC[C@@]3(O)[C@H]1C5 [naloxonazine],effect on binding of radioligands to the μ1-site,μ1-site,abolish the binding of radioligands
Oc1ccc2c3c1O[C@H]1c4oc5ccccc5c4C[C@@]4(O)[C@@H](C2)N(CC2CC2)CC[C@]314 [naltriben],"displacement of [3H]-diprenorphine binding, compared with BNTX",cloned DOR-1 receptor,more highly displaced
